Reference: patent publication EP4745135A1 (Gluetacs Therapeutics (Shanghai) Co., Ltd., priority 2023, dated 2025)

Target: T1, human Cereblon WT GST-tagged protein (Homo sapiens, UniProt Q96SW2)
T1 construct: purchased CISBIO 64BDCRBNPEH
Experiment: CRBN-binding affinity, HTRF (CEREBLON BINDING kit)
Conditions: for inhibition at 0.5 µM: read-out: Inhibition Rate at 0.5 µM (%); for inhibition at 2 µM: read-out: Inhibition Rate at 2 µM (%)
Description: The CEREBLON BINDING kits (specification: 10,000 tests; product number: Catalog # 64BDCRBNPEH; CISBIO company) was used to determine the CRBN binding ability of the compounds to be tested through a HTRF method (homogeneous time-resolved fluorescence). The specific methods are as follows: • 1. […] Specifically, diluent #9 (1X) solution was used as the diluent, and multiple concentration gradients were set. […] Then, 2.5 µL of human Cereblon WT GST-tagged protein solution was added to each well. Finally, 5 µL of the thoroughly mixed Thalidomide-Re reagent and GST Eu antibody working solution were added to each of the aforementioned wells. […] The blank control wells were sequentially added with 2.5 µL of diluent #9 (1X) solution, 2.5 µL of PROTAC binding buffer, and 5 µL of thoroughly mixed Thalidomide-Re reagent and GST Eu antibody working solution. • 4.

T1 sequence (Q96SW2 whole entry): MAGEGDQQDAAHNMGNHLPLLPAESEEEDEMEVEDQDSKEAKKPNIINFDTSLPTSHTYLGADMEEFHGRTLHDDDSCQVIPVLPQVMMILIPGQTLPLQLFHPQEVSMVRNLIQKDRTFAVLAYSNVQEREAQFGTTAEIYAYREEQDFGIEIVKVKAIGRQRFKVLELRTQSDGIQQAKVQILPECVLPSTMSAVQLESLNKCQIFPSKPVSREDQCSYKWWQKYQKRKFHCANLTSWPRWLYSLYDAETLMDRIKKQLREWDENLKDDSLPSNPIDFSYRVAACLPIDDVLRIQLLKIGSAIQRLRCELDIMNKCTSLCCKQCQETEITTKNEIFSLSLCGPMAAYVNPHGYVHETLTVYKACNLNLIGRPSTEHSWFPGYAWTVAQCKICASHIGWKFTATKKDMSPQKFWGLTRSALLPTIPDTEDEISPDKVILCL

Compound	inhibition at 0.5 µM [%]	inhibition at 2 µM [%]
O=C1CCC(N2Cc3c(CN4CCN(c5ccnc(F)c5F)CC4)cccc3C2=S)C(=O)N1 (stereo not drawn) [GT-08736, 3-(4-((4-(2,3-difluoropyridin-4-yl)piperazin-1-yl)methyl)-1-thioxoisoindolin-2-yl)piperidine-2,6-dione]	60 to 80	80 to 100
O=C1CCC(N2Cc3cc(CN4CCN(c5cccnn5)CC4)ccc3C2=S)C(=O)N1 (stereo not drawn) [GT-09265, 3-(5-((4-(pyridazin-3-yl)piperazin-1-yl)methyl)-1-thioxoisoindolin-2-yl)piperidine-2,6-dione]	60 to 80	80 to 100
O=C1CCC(N2Cc3cc(CN4CCN(c5ccnc(Cl)c5F)CC4)ccc3C2=S)C(=O)N1 (stereo not drawn) [GT-09239, 3-(5-((4-(2-chloro-3-fluoropyridin-4-yl)piperazin-1-yl)methyl)-1-thioxoisoindolin-2-yl)piperidine-2,6-dione]	60 to 80	80 to 100
Cc1sc2ncnc(N3CCN(Cc4ccc5c(c4)CN(C4CCC(=O)NC4=O)C5=S)CC3)c2c1C (stereo not drawn) [GT-09285, 3-(5-((4-(5,6-dimethylthieno[2,3-d]pyrimidin-4-yl)piperazin-1-yl)methyl)-1-thioxoisoindolin-2-yl)piperidine-2,6-dione]	80 to 100	80 to 100
Cc1cc(N2CCN(Cc3cccc4c3CN(C3CCC(=O)NC3=O)C4=S)CC2)ccn1 (stereo not drawn) [GT-08727, 3-(4-((4-(2-methylpyridin-4-yl)piperazin-1-yl)methyl)-1-thioxoisoindolin-2-yl)piperidine-2,6-dione]	53 to 60	80 to 100
O=C1CCC(N2Cc3c(CN4CC5CCC(C4)N5C(c4ccccc4)c4ccccc4)cccc3C2=S)C(=O)N1 (stereo not drawn) [GT-08234, 3-(4-((8-benzhydryl-3,8-diazabicyclo[3.2.1]octan-3-yl)methyl)-1-thioxoisoindolin-2-yl)piperidine-2,6-dione]	40 to 53	60 to 80
O=C1CCC(N2Cc3cc(CN4CC5CCC(C4)N5C(c4ccccc4)c4ccccc4)ccc3C2=S)C(=O)N1 (stereo not drawn) [GT-07849, 3-(5-((8-benzhydryl-3,8-diazabicyclo[3.2.1]octan-3-yl)methyl)-1-thioxoisoindolin-2-yl)piperidine-2,6-dione]	30 to 40	60 to 80
O=C1CCC(N2Cc3c(CN4CCC(Nc5ccccc5-c5ccc(Cl)cc5)CC4)cccc3C2=S)C(=O)N1 (stereo not drawn) [GT-09034, 3-(4-((4-((4'-chloro-[1,1'-biphenyl]-2-yl)amino)piperidin-1-yl)methyl)-1-thioxoisoindolin-2-yl)piperidine-2,6-dione]	40 to 53	60 to 80
O=C1CCC(N2Cc3c(CN4CCN(C(c5ccccc5)c5ccccn5)CC4)cccc3C2=S)C(=O)N1 (stereo not drawn) [GT-08192, 3-(4-((4-(phenyl(pyridin-2-yl)methyl)piperazin-1-yl)methyl)-1-thioxoisoindolin-2-yl)piperidine-2,6-dione]	60 to 80	80 to 100
Cc1sc2ncnc(N3CCCN(Cc4ccc5c(c4)CN(C4CCC(=O)NC4=O)C5=S)CC3)c2c1C (stereo not drawn) [GT-09287, 3-(5-((4-(5,6-dimethylthieno[2,3-d]pyrimidin-4-yl)-1,4-diazepan-1-yl)methyl)-1-thioxoisoindolin-2-yl)piperidine-2,6-dione]	80 to 100	80 to 100
O=C1CCC(N2Cc3cc(CN4CCN(c5ncnc6sccc56)CC4)ccc3C2=S)C(=O)N1 (stereo not drawn) [GT-09280, 3-(5-((4-(thieno[2,3-d]pyrimidin-4-yl)piperazin-1-yl)methyl)-1-thioxoisoindolin-2-yl)piperidine-2,6-dione]	80 to 100	80 to 100
Cc1ccc(N2CCN(Cc3ccc4c(c3)CN(C3CCC(=O)NC3=O)C4=S)CC2)c(C)c1 (stereo not drawn) [GT-08614, 3-(5-((4-(2,4-dimethylphenyl)piperazin-1-yl)methyl)-1-thioxoisoindolin-2-yl)piperidine-2,6-dione]	30 to 40	60 to 80
